Test results from PubChem BioAssay (NCI).
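Here, GI50 denotes the concentration required for 50% inhibition of growth. TGI: total growth inhibition.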

Tests used:
Assay in all cases: inhibition of tumour cell growth, NCI panel, 384-well format
[1] = test system: OVCAR-4 ovarian
[2] = test system: NCI-H522 lung
[3] = test system: HCT-116 colon
[4] = test system: T-47D breast
[5] = test system: NCI-H460 NSCLC
[6] = test system: SK-MEL-5 melanoma
[7] = test system: SF-539 CNS
[8] = test system: EKVX NSCLC
[9] = test system: UACC-62 melanoma
[10] = test system: SF-268 CNS
[11] = test system: CAKI-1 renal
[12] = test system: NCI-H226 lung
[13] = test system: 786-0 renal
[14] = test system: HL-60(TB) leukemia
[15] = test system: DU-145 prostate
[16] = test system: SNB-19 CNS
[17] = test system: BT-549 breast
[18] = test system: ACHN renal
[19] = test system: HCT-15 colon
[20] = test system: MCF7 breast
[21] = test system: UACC-257 melanoma
[22] = test system: SNB-75 CNS
[23] = test system: RXF 393 renal
[24] = test system: HS 578T breast
[25] = test system: MDA-MB-468 breast
[26] = test system: OVCAR-3 ovarian
[27] = test system: SR leukemia
[28] = test system: IGROV1 ovarian
[29] = test system: A549 NSCLC
[30] = test system: SK-MEL-28 melanoma
[31] = test system: SK-OV-3 ovarian
[32] = test system: UO-31 renal
[33] = test system: MDA-MB-435 melanoma
[34] = test system: KM12 colon
[35] = test system: SF-295 CNS
[36] = test system: SN12C renal
[37] = test system: HT29 colon
[38] = test system: COLO 205 colon
[39] = test system: NCI-H23 lung
[40] = test system: K-562 leukemia
[41] = test system: PC-3 prostate
[42] = test system: HOP-92 NSCLC
[43] = test system: SW-620 colon
[44] = test system: OVCAR-8 ovarian
[45] = test system: SK-MEL-2 melanoma
[46] = test system: OVCAR-5 ovarian
[47] = test system: MALME-3M melanoma
[48] = test system: MDA-MB-231 breast
[49] = test system: A498 renal
[50] = test system: U251 glioblastoma
[51] = test system: NCI-H322M lung
[52] = test system: MOLT-4 leukemia
[53] = test system: HOP-62 NSCLC
[54] = test system: M14 melanoma
[55] = test system: TK-10 renal
[56] = test system: CCRF-CEM leukemia
[57] = test system: RPMI-8226 leukemia
[58] = test system: LOX IMVI melanoma
[59] = test system: HCC-2998 colon

Q: Which results are given for `C#CC[C@H](c1nc2cc(Cl)ccc2c(=O)n1Nc1ccccc1)N(CCCN)C(=O)c1cccc(Cl)c1F`?
A: GI50 [1]: 521 nM; TGI [1]: 2.09 µM; GI50 [2]: 20 nM; TGI [2]: 40.2 nM; GI50 [3]: 36.5 nM; TGI [3]: 1170 nM; GI50 [4]: 57.7 nM; TGI [4]: 1600 nM; GI50 [5]: 48 nM; TGI [5]: 1120 nM; GI50 [6]: 77.4 nM; TGI [6]: 737 nM; GI50 [7]: 27.3 nM; TGI [7]: 75.1 nM; GI50 [8]: 89.6 nM; TGI [8]: 1460 nM; GI50 [9]: 51.7 nM; TGI [9]: 1440 nM; GI50 [10]: 48.6 nM; TGI [10]: 1450 nM; GI50 [11]: 795 nM; TGI [11]: 2030 nM; GI50 [12]: 1110 nM; TGI [12]: 2310 nM; GI50 [13]: 678 nM; TGI [13]: 1960 nM; GI50 [14]: 19.9 nM; TGI [14]: 34.6 nM; GI50 [15]: 58.9 nM; TGI [15]: 1060 nM; GI50 [16]: 863 nM; TGI [16]: 2160 nM; GI50 [17]: 166 nM; TGI [17]: 1080 nM; GI50 [18]: 1.11 µM; TGI [18]: 2320 nM; GI50 [19]: 1500 nM; TGI [19]: 2.85 µM; GI50 [20]: 23.1 nM; TGI [20]: 1110 nM; GI50 [21]: 60.4 nM; TGI [21]: 1900 nM; GI50 [22]: 58.9 nM; TGI [22]: 1530 nM; GI50 [23]: 41 nM; TGI [23]: 288 nM; GI50 [24]: 17.8 nM; TGI [24]: 44.8 nM; GI50 [25]: 18.3 nM; TGI [25]: 39.6 nM; GI50 [26]: 30.2 nM; TGI [26]: 277 nM; GI50 [27]: 18.9 nM; TGI [27]: 34.3 nM; GI50 [28]: 1030 nM; TGI [28]: 2220 nM; GI50 [29]: 62.5 nM; TGI [29]: 1880 nM; GI50 [30]: 1290 nM; TGI [30]: 2560 nM; GI50 [31]: 29.9 nM; TGI [31]: 648 nM; GI50 [32]: 1790 nM; TGI [32]: 3.18 µM; GI50 [33]: 17.8 nM; TGI [33]: 35.9 nM; GI50 [34]: 56.8 nM; TGI [34]: 670 nM; GI50 [35]: 227 nM; TGI [35]: 650 nM; GI50 [36]: 109 nM; TGI [36]: 1860 nM; GI50 [37]: 36.1 nM; TGI [37]: 173 nM; GI50 [38]: 30.3 nM; TGI [38]: 82.9 nM; GI50 [39]: 73.7 nM; TGI [39]: 799 nM; GI50 [40]: 44.9 nM; TGI [40]: 219 nM; GI50 [41]: 57 nM; TGI [41]: 1590 nM; GI50 [42]: 674 nM; TGI [42]: 2140 nM; GI50 [43]: 65.2 nM; TGI [43]: 1250 nM; GI50 [44]: 189 nM; TGI [44]: 1220 nM; GI50 [45]: 21.6 nM; TGI [45]: 43.5 nM; GI50 [46]: 468 nM; TGI [46]: 1.86 µM; GI50 [47]: 189 nM; TGI [47]: 1.76 µM; GI50 [48]: 63 nM; TGI [48]: 1700 nM; GI50 [49]: 553 nM; TGI [49]: 1820 nM; GI50 [50]: 45 nM; TGI [50]: 1330 nM; GI50 [51]: 52.8 nM; TGI [51]: 1520 nM; GI50 [52]: 19.4 nM; TGI [52]: 34.4 nM; GI50 [53]: 354 nM; TGI [53]: 1540 nM; GI50 [54]: 363 nM; TGI [54]: 1440 nM; GI50 [55]: 1070 nM; TGI [55]: 2270 nM

Q: For `O=C(c1cc(-c2cc3c(cc2C(=O)N2Cc4ccccc4C[C@H]2CN2CCOCC2)OCO3)n2c1CCCC2)N(c1ccccc1)c1ccc(O)cc1`, which GI50 [1] is on record?
A: 1290 nM

Q: And the TGI [1]?
A: 4.43 µM

Q: What about the GI50 [6] of the same molecule?
A: 305 nM

Q: What about the TGI [6] of the same molecule?
A: 928 nM

Q: And the GI50 [9]?
A: 356 nM

Q: And the TGI [9]?
A: 1820 nM

Q: And the GI50 [12]?
A: 1010 nM

Q: What about the TGI [12] of the same molecule?
A: 3180 nM

Q: What about the GI50 [14] of the same molecule?
A: 146 nM

Q: What about the TGI [14] of the same molecule?
A: 280 nM

Q: And the GI50 [18]?
A: 4.91 µM

Q: And the TGI [18]?
A: > 100000 nM

Q: And the GI50 [19]?
A: 1750 nM

Q: And the TGI [19]?
A: 3.22 µM

Q: What about the GI50 [56] of the same molecule?
A: 255 nM

Q: What about the TGI [56] of the same molecule?
A: 618 nM

Q: What about the GI50 [20] of the same molecule?
A: 412 nM

Q: What about the TGI [20] of the same molecule?
A: 3000 nM

Q: What about the GI50 [21] of the same molecule?
A: 362 nM

Q: What about the TGI [21] of the same molecule?
A: 1250 nM

Q: And the GI50 [23]?
A: 137 nM

Q: What about the TGI [23] of the same molecule?
A: 484 nM

Q: And the GI50 [25]?
A: 214 nM

Q: What about the TGI [25] of the same molecule?
A: 456 nM

Q: And the GI50 [26]?
A: 210 nM

Q: And the TGI [26]?
A: 497 nM

Q: What about the GI50 [27] of the same molecule?
A: 77.3 nM

Q: And the TGI [27]?
A: 206 nM

Q: What about the GI50 [28] of the same molecule?
A: 2770 nM

Q: And the TGI [28]?
A: > 100000 nM

Q: What about the GI50 [57] of the same molecule?
A: 207 nM

Q: What about the TGI [57] of the same molecule?
A: 437 nM

Q: What about the GI50 [30] of the same molecule?
A: 735 nM

Q: And the TGI [30]?
A: 2600 nM

Q: And the GI50 [58]?
A: 1420 nM

Q: And the TGI [58]?
A: 3.25 µM

Q: What about the GI50 [31] of the same molecule?
A: 356 nM

Q: What about the TGI [31] of the same molecule?
A: 1460 nM

Q: What about the GI50 [32] of the same molecule?
A: 4170 nM

Q: What about the TGI [32] of the same molecule?
A: > 100 µM

Q: What about the GI50 [33] of the same molecule?
A: 144 nM

Q: What about the TGI [33] of the same molecule?
A: 351 nM

Q: And the GI50 [35]?
A: 2040 nM

Q: What about the TGI [35] of the same molecule?
A: 4280 nM

Q: And the GI50 [37]?
A: 419 nM

Q: What about the TGI [37] of the same molecule?
A: 1460 nM

Q: And the GI50 [59]?
A: 1270 nM

Q: What about the TGI [59] of the same molecule?
A: 2830 nM

Q: What about the GI50 [42] of the same molecule?
A: 502 nM

Q: What about the TGI [42] of the same molecule?
A: 2420 nM

Q: And the GI50 [43]?
A: 444 nM

Q: What about the TGI [43] of the same molecule?
A: 1540 nM

Q: What about the GI50 [45] of the same molecule?
A: 176 nM

Q: What about the TGI [45] of the same molecule?
A: 704 nM

Q: What about the GI50 [46] of the same molecule?
A: 2760 nM

Q: What about the TGI [46] of the same molecule?
A: 8.21 µM

Q: What about the GI50 [47] of the same molecule?
A: 473 nM

Q: And the TGI [47]?
A: 4.71 µM

Q: And the GI50 [48]?
A: 1190 nM

Q: And the TGI [48]?
A: 3230 nM

Q: And the GI50 [49]?
A: 806 nM

Q: What about the TGI [49] of the same molecule?
A: 3570 nM

Q: And the GI50 [51]?
A: 2430 nM

Q: What about the TGI [51] of the same molecule?
A: > 100000 nM

Q: And the GI50 [52]?
A: 182 nM

Q: And the TGI [52]?
A: 327 nM

Q: What about the GI50 [54] of the same molecule?
A: 475 nM

Q: What about the TGI [54] of the same molecule?
A: 1700 nM

Q: What about the GI50 [55] of the same molecule?
A: 2830 nM

Q: And the TGI [55]?
A: > 100000 nM
